One molecule from US20230255954A1, “INTERLEUKIN 33 (IL-33) INHIBITION FOR TREATMENT OF CANCER, FIBROSIS AND INFLAMMATION” (The General Hospital Corporation, priority 2020, published 2023) can be followed below.

The subject of one assay is p-IRF3. Nature of the assay: Poly (I:C) induced p-IRF3 expression in Pam212 cells. It counts as cell-based, mouse. The note with it: Pam212 cells with Poly (I:C). On the procedure: Cell lysates were prepared in LIPA buffer (Thermo Fisher Scientific, catalog no. 89900) consisting of 1× protease inhibitor cocktail, EDTA-free (Thermo Fisher Scientific, catalog no. A32955). Mice tissues were meshed and lysed by 0.1% TWEEN-(Millipore Sigma, catalog no. P1379) in PBS. Mice tissues were frozen by liquid nitrogen and thaw by incubation at 37° C. for further lysis. Cell lysates were sonicated for […], and then they were centrifugated at 13,200 rpm. After checking the protein concentration of each sample, the same amount of proteins was loaded into Mini-PROTEIN TGX™ Gels (BIO-RAD, Hercules, Calif., catalog no. 456-1083 or 456-1086) with 1× Tris/Glycine/SDS buffer (BIO-RAD, catalog no. 1610732). A few minutes later (according to protein size), they were transferred to Immobilon-P membrane (Millipore Sigma, catalog no. IPVH00010) with Transfer buffer (Boston Bioproducts, Ashland, Mass., catalog no. BP-190). Then, they were incubated 3% bovine serum albumin (Thermo Fisher Scientific, catalog no. BP1600) or 5% Skim milk (BD biosciences, San Jose, Calif., catalog no. 232100) in 1× Tris-Buffered Saline (Boston Bioproducts, catalog no. BM301X) containing 0.1% TWEEN, called TBS-T for 30 min. After the membrane was washed with TBS-T, they were subjected to immunoblot with proper antibodies for overnight at 4° C. […]

Assay [1] concerns DNFB treated mice back skin. In words: DNFB chronic skin inflammation model with pitavastatin. The assay is classed as in vivo, mouse. As to the method: Four- to six-week old male and female mice were shaved on their abdomen and sensitized to 50 μL 0.5% 1-Fluoro-2,4-dinitrobenzene (DNFB, Millipore Sigma, St. Louis, Mo., catalog no. 42085) dissolved in acetone plus olive oil at 3:1 ratio (refer to as acetone). Two days after first sensitization, mice were re-sensitized to 50 μL 0.25% DNFB on their abdomen. After 5 days, mice were challenged with 100 μL 0.25% DNFB on their back skin, which was repeated three times per week for 22 days. Skin rash was monitored over the duration of the study.
Mice were treated with 0.5 mM pitavastatin in 200 μL 70% ethanol or 200 μL 70% ethanol alone to their back skin twice a week. Pitavastatin/70% ethanol treatments were given in DNFB doses.
Tissue samples were collected and fixed in 4% paraformaldehyde (Millipore Sigma, catalog no. P6148) overnight at 4° C. Next, tissues were dehydrated in ethanol, processed and embedded in paraffin. 5 μm sections paraffin-embedded tissues were placed on slides, deparaffinized and stained with H&E or toluidine blue (for mast cell detection). For immunohistochemistry, antigen retrieval was performed in 500 μL of antigen unmasking solution (VECTOR Laboratories, Burlingame, Calif., catalog no. H3300) diluted in 50 mL water using Cuisinart pressure cooker for 20 min at high pressure. Slides were washed three times for three minutes each in 1×TBS with 0.025% Triton X-100. Sections were blocked with 1% bovine serum albumin (Thermo Fisher Scientific, catalog no. BP1600) and 5% goat serum (Millipore Sigma, catalog no. G9023) for 1 hour. Slides were stained overnight at 4° C. with a primary antibody diluted in TBS containing 1% BSA (Appendix Table S2). The following day, slides were washed as above and incubated in 100 μL biotinylated secondary antibody (VECTOR Laboratories, catalog no. PK-6200) for 30 min. After washing, slides were incubated with 100 μL mixture of reagent A and B from VECTASTAIN Elite ABC universal kit Peroxidase (VECTOR Laboratories, catalog no. PK-6200) for 30 min. After washing, slides were incubated with 100 μL ImmPACT DAB chromogen stating (VECTOR Laboratories, catalog no. SK-4105) for a few minutes. Finally, slides dehydrated in ethanol and xylene and mounted with a coverslip using 3 drops of mounting media.
Next, we also investigated effect of pitavastatin in vivo chronic inflammation model. […] Next, we studied the effect of pitavastatin treatment on chronic inflammation in mice. […] Furthermore, both IL-33 and nuclear IRF3 were reduced in same epithelial region of DNFB plus pitavastatin versus DNFB plus carrier treated mice (FIGS. 12D and E). Thus, pitavastatin is a small molecule IL-33 inhibitor that suppresses skin inflammation.

Assay [2] relates to IRF3 nuclear localization. Nature of the assay: IRF3 nuclear immunofluorescence staining in poly (I:C) treated Pam212 cells. The assay is classed as cell-based, mouse. The settings on record: compared to only Poly (I:C) treated group. On the procedure:
For immunofluorescence staining, Pam212 cells were permeated with 1×PBS supplemented with 0.2% Triton X-100 for 5 min. Slides were washed three times for three minutes each in 1×PBS with 0.1% TWEEN20. Slides were blocked with 1% bovine serum albumin and 5% goat serum for 1 hour. The slides were stained overnight at 4° C. with IRF3 antibody. The following day, slides were washed as above and incubated for two hours at room temperature with secondary antibodies conjugated to fluorochromes. Next, slides were incubated with 1:2000 DAPI (Thermo Fisher Scientific, catalog no. D3571) for five minutes at room temperature, then washed as above. Slides were mounted with Prolong Gold Antifade Reagent (Thermo Fisher Scientific, catalog no. P36930).
Next, to investigate the mechanism by which pitavastatin can block IL-33 expression, we first confirmed p-IRF3 expression level because IRF3 is a transcription factor of IL-33 expression. […] However, pitavastatin treatment with Poly (I:C) to Pam212 cells, level of p-IRF3 was decreased (FIG. 11A). […] After IRF3 are phosphorylated by upstream, p-IRF3 can translocate to nucleus as a transcription factor.

The mark [3] stands for this setting: DNFB plus pitavastatin versus DNFB plus carrier.
Where [4] appears, read: topical DNFB plus pitavastatin vs DNFB plus carrier.

With `O=C(O)C[C@H](O)C[C@H](O)/C=C/c1c(C2CC2)nc2ccccc2c1-c1ccc(F)cc1` [pitavastatin], the “level of p-IRF3” value in the assay on p-IRF3 is reported as “decreased”. For the same molecule, the “chronic inflammation in back skin” value in assay [1] (0.5 mM pitavastatin in 200 μL 70% ethanol on back skin twice a week, compared to only DNFB treated mice) was “mild chronic inflammation”. In assay [1] (setting [3]), the “IL-33 in epithelial region (staining)” value is listed as “reduced” and the “nuclear IRF3 in epithelial region (staining)” value is “reduced”. Moreover, in assay [1] (DNFB treated mice skin), the “IL-33 expression, RNA level” value was “decreased” and the “IL-33 expression, protein level” value is “decreased”. In addition, in assay [1] (compared to only DNFB treated group), the p-IRF3 entry was “decreased”. For the same molecule, in assay [1] (setting [4]), the epidermal thickness entry is reported as “reduced” and the mast cell infiltration entry was “reduced”. The IRF3 nuclear localization entry in assay [2] was “blocked”.
